Entries after “also recorded” stand apart in the source; their conditions may differ.
Assays:
[1] = Physical and chemical stability on storage (LC-MS and XRPD); assay type: physicochemical; conditions: for decomposition or solid form change in stability assay / Stability (matrix of results from solid form characterization): 1 week stability assay; for Solid Form after storage (XRPD) / Stability: 25/60% RH; 40 C./75% RH; 1 week / Form change?: 1 week; for Stability: 25/60% RH; 40 C./75% RH; 1 week / Form change?: BRD4780 salt solid form, 25/60% RH and 40 C./75% RH; for Stability: 25/60% RH; 40 C./75% RH; 1 week: impurities estimated by LCMS by observation of the TIC; for Form change?: solid form change (XRPD); for Stability (matrix of results from solid form characterization): summary grade Good/Moderate/Poor
Experimental: To compare the physical/chemical stability of the salt candidates, approximate 10 mg of each solid sample was added to a 5-mL glass vial covered with Parafilm® with several pin-holes on it, and then stored under 25° C./60% RH and 40° C./75% RH. After one week storage, solids were taken out for LC-MS and XRPD test to evaluate physical and chemical stability.

[2] = Equilibrium solubility in water and bio-relevant media (SGF, FaSSIF, FeSSIF); conditions: for Solubility (matrix of results from solid form characterization): summary grade Good/Moderate/Poor; for solubility: thermodynamic from solid
[3] = Dynamic Vapor Sorption (DVS) hygroscopicity; assay type: physicochemical; conditions: for DVS (matrix of results from solid form characterization): summary grade Good/Moderate/Poor
Experimental: Dynamic Vapor Sorption (DVS) was measured via a SMS (Surface Measurement Systems) DVS Intrinsic. The relative humidity at 25° C. were calibrated against the deliquescence point of LiCl, Mg(NO3)2 and KCl.

[4] = Physical and chemical stability on storage (LC-MS and XRPD); assay type: physicochemical
[5] = TGA and DSC thermal characterization of salts; assay type: physicochemical; conditions: summary grade Good/Moderate/Poor
Experimental: TGA data were collected using a TA Discovery5500/Q5000 TGA from TA Instruments. DSC was performed using a TA Discovery2500/Q2000 DSC from TA Instruments.

physchem = conditions: thermodynamic from solid
[6] = Fasted State Simulated Intestinal Fluid (pH 6.5)
[7] = Fed State Simulated Intestinal Fluid (pH 5.0)
[8] = Simulated gastric fluid (pH 1.8)
[9] = water, HCl salt tested at 100 mg/mL, other salts at 50 mg/mL
[10] = fasted state simulated intestinal fluid (FaSSIF), pH 6.5, fassif, FaSSIF solubility, Fasted State Simulated Intestinal Fluid (pH 6.5)
[11] = fed state simulated intestinal fluid (FeSSIF), pH 5, fessif, FeSSIF solubility, Fed State Simulated Intestinal Fluid (pH 5.0)
[12] = simulated gastric fluid (SGF), pH 1.8, simulated gastric fluid, SGF solubility, Simulated gastric fluid (pH 1.8)
[13] = water, H2O solubility (mM; salt)
[14] = water, H2O solubility (mg/mL; salt), HCl salt tested at 100 mg/mL, other salts at 50 mg/mL

In the case of `CC(C)C1C2CCC(C2)C1N.Cl` (racemic) [HCl salt Type A, rac-3-exo-isopropylbicyclo[2.2.1]heptan-2-endo-amine hydrochloride, reference compound], the “decomposition or solid form change in stability assay” value (from here on “decomposition or solid form change”) [1] is reported as “did not display decomposition or solid form change”, the “Solid Form after storage (XRPD)” value ([1]; 25° C./60% RH) is reported as “HCl salt Type A” and the “Solid Form after storage (XRPD)” value ([1]; 40° C./75% RH) is reported as “HCl salt Type A”. The “Stability: 25/60% RH; 40 C./75% RH; 1 week” value (“Stability: 25/60% RH” for short) [1] was “No significant impurities”, the “Form change?” value [1] was “No change” and the “Stability (matrix of results from solid form characterization)” value [1] was “Good”. It also gave a FaSSIF solubility [2, 6] of over 71 mg/mL, a FeSSIF solubility [2, 7] of over 75 mg/mL and an SGF solubility [2, 8] of over 77 mg/mL. The pH ([2]; final solution in FaSSIF) was 6.0, the pH ([2]; final solution in FeSSIF) was 4.8 and the pH ([2]; final solution in H2O) was 4.5. The pH ([2]; final solution in SGF) was 1.8, the “Solubility (matrix of results from solid form characterization)” value [2] was “Good” and the “H2O solubility (mM; salt)” value ([2]; water) was over 405.84 mM. The “H2O solubility (mg/mL; salt)” value [2, 9] was over 77 mg/mL, the “DVS (% H2O uptake at 25 C./80% RH)” value ([3]; 80% RH) was 0.55% and the “DVS (% H2O uptake at 25 C./95% RH)” value [3] was 3.3%. For the same compound, the H2O absorption ([3]; 80% RH) was 0.55 wt %, the H2O absorption ([3]; 90% RH) was 3.3 wt % and the hygroscopicity classification ([3]; DVS) was “slightly hygroscopic”. The “DVS (matrix of results from solid form characterization)” value [3] was “Moderate”, the “new peak on LC-MS chromatogram after storage” value ([4]; 60° C. for 24 h) was “a new peak was observed” and the “Solid Form after storage (XRPD)” value ([4]; 60° C., 24 h) was “HCl salt Type A”. The “TGA/DSC (matrix of results from solid form characterization)” value (“TGA/DSC” below) [5] was “Good”.

With `CC(C)[C@@H]1[C@H]2CC[C@H](C2)[C@H]1N` (racemic) [Phosphate Type B] the “decomposition or solid form change” value [1] was “form change observed”, the “Solid Form after storage (XRPD)” value ([1]; 25° C./60% RH) was “Phosphate Type A + B” and the “Solid Form after storage (XRPD)” value ([1]; 40° C./75% RH) was “Phosphate Type A + B”. The “Stability: 25/60% RH” value [1] was “No significant impurities”, the “Form change?” value [1] was “Phosphate A” and the “Stability (matrix of results from solid form characterization)” value [1] was “Poor”. For the same compound, the solubility [2, 10] was over 29 mg/mL, the solubility [2, 11] was over 27 mg/mL and the pH ([2]; final solution in FaSSIF) was 5.1. For the same compound, the pH ([2]; final solution in FeSSIF) was 4.8, the pH ([2]; final solution in H2O) was 4.4 and the pH ([2]; final solution in SGF) was 3.0. For the same compound, the solubility [2, 12] was over 32 mg/mL, the “Solubility (matrix of results from solid form characterization)” value [2] was “Good” and the solubility [2, 13] was over 163 mM. The solubility [2, 14] was over 33 mg/mL, the “DVS (% H2O uptake at 25 C./80% RH)” value ([3]; 80% RH) was 1.18% and the “DVS (% H2O uptake at 25 C./95% RH)” value [3] was 5.8%. For the same compound, the “desorption of absorbed H2O” value ([3]; DVS) was “did not fully desorb”, the hygroscopicity classification ([3]; DVS) was “hygroscopic” and the “DVS (matrix of results from solid form characterization)” value [3] was “Poor”. The “TGA/DSC” value [5] was “Poor”.

For `CC(C)[C@@H]1[C@H]2CC[C@H](C2)[C@H]1N.O=C(O)/C=C/C(=O)O` [Fumarate Type A], the “decomposition or solid form change” value [1] was “did not display decomposition or solid form change”, the “Solid Form after storage (XRPD)” value ([1]; 25° C./60% RH) was “Fumarate Type A” and the “Solid Form after storage (XRPD)” value ([1]; 40° C./75% RH) was “Fumarate Type A”. The “Stability: 25/60% RH” value [1] was “No significant impurities”, the “Form change?” value [1] was “No change” and the “Stability (matrix of results from solid form characterization)” value [1] was “Good”. For the same compound, the “XRPD after stirring in medium” value ([2]; 24 hours in FeSSIF) was “Additional peaks in the XRPD spectra were observed”, the solubility [2, 10] was 12.4 mg/mL and the solubility [2, 11] was 17.1 mg/mL. For the same compound, the pH ([2]; final solution in FaSSIF) was 3.5, the pH ([2]; final solution in FeSSIF) was 4.1 and the pH ([2]; final solution in H2O) was 3.4. For the same compound, the pH ([2]; final solution in SGF) was 3.1, the solubility [2, 12] was 11.9 mg/mL and the “Solubility (matrix of results from solid form characterization)” value [2] was “Moderate”. For the same compound, the solubility [2, 13] was 44.6 mM, the solubility [2, 14] was 12.3 mg/mL and the “DVS (% H2O uptake at 25 C./80% RH)” value ([3]; 80% RH) was 0.15%. For the same compound, the “DVS (% H2O uptake at 25 C./95% RH)” value [3] was 0.16%, the hygroscopicity classification ([3]; DVS) was “not hygroscopic” and the “DVS (matrix of results from solid form characterization)” value [3] was “Good”. The “TGA/DSC” value [5] was “Good”.

In the case of `CC(C)[C@@H]1[C@H]2CC[C@H](C2)[C@H]1N` [L-malate Type C], the “decomposition or solid form change” value [1] is reported as “form change observed”, the “Solid Form after storage (XRPD)” value ([1]; 25° C./60% RH) is reported as “L-malate Type C” and the “Solid Form after storage (XRPD)” value ([1]; 40° C./75% RH) is reported as “partly converted to L-malate Type B; also recorded: L-malate Type B + C”. For the same compound, the “Stability: 25/60% RH” value [1] was “No significant impurities”, the “Form change?” value [1] was “Type B observed” and the “Stability (matrix of results from solid form characterization)” value [1] was “Poor”. It also gave a FaSSIF solubility [2, 6] of over 30 mg/mL, a FeSSIF solubility [2, 7] of over 32 mg/mL and an SGF solubility [2, 8] of over 33 mg/mL. The pH ([2]; final solution in FaSSIF) was 6.4, the pH ([2]; final solution in FeSSIF) was 5.2 and the pH ([2]; final solution in H2O) was 7.1. The pH ([2]; final solution in SGF) was 5.3, the “Solubility (matrix of results from solid form characterization)” value [2] was “Good” and the “H2O solubility (mM; salt)” value ([2]; water) was over 136.17 mM. The “H2O solubility (mg/mL; salt)” value [2, 9] was over 39 mg/mL, the “DVS (% H2O uptake at 25 C./80% RH)” value ([3]; 80% RH) was 0.18% and the “DVS (% H2O uptake at 25 C./95% RH)” value [3] was 0.30%. For the same compound, the hygroscopicity classification ([3]; DVS) was “not hygroscopic”, the “DVS (matrix of results from solid form characterization)” value [3] was “Good” and the “TGA/DSC” value [5] was “Poor”.

With `CC(C)[C@@H]1[C@H]2CC[C@H](C2)[C@H]1N.O=C(O)/C=C\C(=O)O` [Maleate Type A] the “decomposition or solid form change” value [1] was “did not display decomposition or solid form change”, the “Solid Form after storage (XRPD)” value ([1]; 25° C./60% RH) was “Maleate Type A” and the “Solid Form after storage (XRPD)” value ([1]; 40° C./75% RH) was “Maleate Type A”. For the same compound, the “Stability: 25/60% RH” value [1] was “No significant impurities”, the “Form change?” value [1] was “No change” and the “Stability (matrix of results from solid form characterization)” value [1] was “Good”. The solubility [2, 10] was over 27 mg/mL, the solubility [2, 11] was over 26 mg/mL and the pH ([2]; final solution in FaSSIF) was 4.6. It also gave a pH ([2]; final solution in FeSSIF) of 4.7, a pH ([2]; final solution in H2O) of 3.8 and a pH ([2]; final solution in SGF) of 4.9. For the same compound, the solubility [2, 12] was over 28 mg/mL, the “Solubility (matrix of results from solid form characterization)” value [2] was “Good” and the solubility [2, 13] was over 92.8 mM. The solubility [2, 14] was over 25 mg/mL, the “DVS (% H2O uptake at 25 C./80% RH)” value ([3]; 80% RH) was 0.02% and the “DVS (% H2O uptake at 25 C./95% RH)” value [3] was 0.07%. The hygroscopicity classification ([3]; DVS) was “not hygroscopic”, the “DVS (matrix of results from solid form characterization)” value [3] was “Good” and the “TGA/DSC” value [5] was “Good”.

In the case of `CC(C)[C@@H]1[C@H]2CC[C@H](C2)[C@H]1N.O=C(O)CCC(=O)O` [Succinate Type A], the “decomposition or solid form change” value [1] is reported as “new peaks observed”, the “Solid Form after storage (XRPD)” value ([1]; 25° C./60% RH) is reported as “Succinate Type A + peaks” and the “Solid Form after storage (XRPD)” value ([1]; 25° C./60% RH, listed as succinate Type A) is reported as “new peaks were observed”. For the same compound, the “Solid Form after storage (XRPD)” value ([1]; 40° C./75% RH) was “Succinate Type A”, the “Stability: 25/60% RH” value [1] was “No significant impurities” and the “Form change?” value [1] was “New Peaks”. The “Stability (matrix of results from solid form characterization)” value [1] was “Moderate”, the pH ([2]; final solution in FaSSIF) was 4.5 and the pH ([2]; final solution in FeSSIF) was 4.6. The pH ([2]; final solution in H2O) was 4.5, the pH ([2]; final solution in SGF) was 4.4 and the solubility (physchem; pH 1.8, simulated gastric fluid, SGF solubility) was over 28 mg/mL. It also gave a solubility (physchem; pH 6.5, fassif, FaSSIF solubility) of over 28 mg/mL, a solubility (physchem; [13]) of over 103 mM and a solubility (physchem; water, H2O solubility (mg/mL; salt)) of over 28 mg/mL. The “DVS (% H2O uptake at 25 C./80% RH)” value ([3]; 80% RH) was 0.08%, the “DVS (% H2O uptake at 25 C./95% RH)” value [3] was 0.67% and the hygroscopicity classification ([3]; DVS) was “not hygroscopic”. The “DVS (matrix of results from solid form characterization)” value [3] was “Good” and the “TGA/DSC” value [5] was “Good”.
